Laboratory results taken from PubChem BioAssay AID1963441 (Molecular Pharmacology Branch, DTP, NCI, 2024).

Test system: NCI-H1876 complex spheroid growth, % test/control
Test: Anticancer human tumor NCI-H1876 cell line growth inhibition [Asc];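 further: compound exposure lasted 7 days starting three days after seeding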;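 on viability, T/C: 100% = DMSO vehicle control wells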
Conditions: for IC50: curve of first compound; for viability, T/C: stronger effect = lower value
Procedure, shortened: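 Complex solid-tumor spheroids incorporating human endothelial and mesenchymal stem cells received single agents or combinations over half-log dilution ranges anchored to clinical Cmax.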

COc1c(OCCCN2CCOCC2)ccc2c3n(c(=NC(=O)c4cnc(N)nc4)nc12)CCN3 + Cc1c(S(C)(=O)=O)c(-c2cc(F)cc(N3CCN(c4ccc(NS(=O)(=O)c5ccc(NC(CCN6CCC(C(=O)OCCCP(=O)(O)O)CC6)CSc6ccccc6)c(S(=O)(=O)C(F)(F)F)c5)cc4)CC3)c2)c(-c2ccc(Cl)cc2)n1C(C)C
IC50 (second compound 0.0316 µM): 243 nM | IC50 (second compound 0.1 µM): 225 nM | IC50 (second compound 0.316 µM): 207 nM | IC50 (second compound 1 µM): 149 nM | IC50 (second compound 3.16 µM): 118 nM | IC50 (second compound 10 µM): 102 nM | viability, T/C (second compound 0.0316 µM, first compound 0.00316 µM): 94.3% | viability, T/C (second compound 0.0316 µM, first compound 0.01 µM): 88% | viability, T/C (second compound 0.0316 µM, first compound 0.0316 µM): 91.3% | viability, T/C (second compound 0.0316 µM, first compound 0.1 µM): 62.4% | viability, T/C (second compound 0.0316 µM, first compound 0.316 µM): 49.3% | viability, T/C (second compound 0.0316 µM, first compound 1 µM): 35.9% | viability, T/C (second compound 0.1 µM, first compound 0.00316 µM): 93.2% | viability, T/C (second compound 0.1 µM, first compound 0.01 µM): 88% | viability, T/C (second compound 0.1 µM, first compound 0.0316 µM): 88.2% | viability, T/C (second compound 0.1 µM, first compound 0.1 µM): 63.2% | viability, T/C (second compound 0.1 µM, first compound 0.316 µM): 45.4% | viability, T/C (second compound 0.1 µM, first compound 1 µM): 29.6% | viability, T/C (second compound 0.316 µM, first compound 0.00316 µM): 94.3% | viability, T/C (second compound 0.316 µM, first compound 0.01 µM): 94.4% | viability, T/C (second compound 0.316 µM, first compound 0.0316 µM): 87.6% | viability, T/C (second compound 0.316 µM, first compound 0.1 µM): 62.2% | viability, T/C (second compound 0.316 µM, first compound 0.316 µM): 43.2% | viability, T/C (second compound 0.316 µM, first compound 1 µM): 20.1% | viability, T/C (second compound 1 µM, first compound 0.00316 µM): 98.5% | viability, T/C (second compound 1 µM, first compound 0.01 µM): 94.7% | viability, T/C (second compound 1 µM, first compound 0.0316 µM): 82.5% | viability, T/C (second compound 1 µM, first compound 0.1 µM): 57.3% | viability, T/C (second compound 1 µM, first compound 0.316 µM): 35% | viability, T/C (second compound 1 µM, first compound 1 µM): 18.7% | viability, T/C (second compound 3.16 µM, first compound 0.00316 µM): 101% | viability, T/C (second compound 3.16 µM, first compound 0.01 µM): 84.7% | viability, T/C (second compound 3.16 µM, first compound 0.0316 µM): 77.9% | viability, T/C (second compound 3.16 µM, first compound 0.1 µM): 52.8% | viability, T/C (second compound 3.16 µM, first compound 0.316 µM): 29.2% | viability, T/C (second compound 3.16 µM, first compound 1 µM): 10.7% | viability, T/C (second compound 10 µM, first compound 0.00316 µM): 96.7% | viability, T/C (second compound 10 µM, first compound 0.01 µM): 90.3% | viability, T/C (second compound 10 µM, first compound 0.0316 µM): 74.5% | viability, T/C (second compound 10 µM, first compound 0.1 µM): 48.4% | viability, T/C (second compound 10 µM, first compound 0.316 µM): 28.3% | viability, T/C (second compound 10 µM, first compound 1 µM): 8.91%
